The results in this text go back to EP4752149A1, “OXYGEN-CONTAINING FUSED TRICYCLIC DERIVATIVE, AND PREPARATION METHOD THEREFOR AND USE THEREOF” (Tuojie Biotech (Shanghai) Co., Ltd., priority 2023, dated 2025).

For orientation: IC50 means the point on the concentration scale where inhibition reaches its midpoint.

Assay type in all cases: cell-based
Experiment [1] relates to Triple-negative breast cancer cells (HCC1806). The experiment in a line: Inhibitory activity against triple-negative breast cancer cells (HCC1806), CTG cell viability. The note with it: 7 days with compound. Here is the method:
Triple-negative breast cancer cells (HCC1806, Nanjing Cobioer Biosciences Co., Ltd.) were cultured using an RPMI 1640 culture medium containing 10% FBS in a cell incubator (37 °C, 5% CO2). On day one, the cells were plated in a 384-well plate at a cell concentration of 200 cells/well and cultured overnight in an incubator. On day two, the cells were treated with compounds. The highest compound concentration was 10 µM and was diluted 3-fold to obtain 9 concentrations, and the final concentration of DMSO was 0.2%. After the cells were cultured in the incubator for another 7 days, the cell viability was tested using a CTG Cell Viability Detection Reagent (MCE); the testing method was consistent with the method provided by the kit. Data were processed using XLfit, and IC50 was calculated. [formula] X: the logarithm of the compound concentration; Y: inhibition%. Table 4. The IC50 (nM) of compounds of the present disclosure against HCC1806

The subject of experiment [2] is Human non-small cell lung cancer cells (A549). The experiment in a line: Inhibitory activity against human non-small cell lung cancer cells (A549), CTG cell viability. The note with it: 5 days with compound. As to the method: (§1) Human non-small cell lung cancer cells (A549) were cultured using an F12K culture medium containing 10% FBS in a cell incubator (37 °C, 5% CO2). On day one, the cells were plated in a 384-well plate at a cell concentration of 300 cells/well and cultured overnight in an incubator. On day two, the cells were treated with compounds. The highest compound concentration was 10 µM and was diluted 3-fold to obtain 9 concentrations, and the final concentration of DMSO was 0.2%. After the cells were cultured in the incubator for another 5 days, the cell viability was tested using a CTG Cell Viability Detection Reagent; the testing method was consistent with the method provided by the kit. Data were processed using XLFit, and IC50 was calculated. [formula] X: the logarithm of the compound concentration; Y: % inhibition. Table 10. The IC50 (nM) of a compound of the present disclosure against A549

For experiment [3], the system named is MCF-7/Palbo-R. The experiment in a line: Inhibitory activity against CDK4/6 inhibitor-resistant human breast cancer cells (MCF-7 palbociclib-resistant cell line), cell viability. The note with it: 5 days with compound, CellTiter-Glo cell viability. As to the method: MCF-7/Palbo-R cell source: MCF7 cells (Nanjing Cobioer Biosciences Co., Ltd.) were treated with 1 µM palbociclib for a long time, and drug resistance was induced.
The palbociclib-resistant breast cancer cell line MCF-7/Palbo-R was cultured using a DMEM culture medium containing 10% FBS in a cell incubator (37 °C, 5% CO2). On day one, the cells were plated in a 384-well plate at a cell concentration of 800 cells/well and cultured overnight in an incubator. On day two, the cells were treated with compounds. The highest compound concentration was 10 µM and was diluted 3-fold to obtain 9 concentrations, and the final concentration of DMSO was 0.2%. After the cells were cultured in the incubator for another 5 days, the cell viability was tested using a CellTiter-Glo luminescent cell viability assay kit; the testing method was consistent with the method provided by the kit. Data were processed using XLfit, and IC50 was calculated.
The inhibition rates (IR) of the test compounds were calculated using the following formula: IR (%) = (1 - (RLU compound - RLU blank control) / (RLU vehicle control-RLU blank control)) × 100%. Table 16. The IC50 (nM) of a compound of the present disclosure against MCF-7/Palbo-R
In general terms: Cellular ATP, detected with luciferase, serves as a proxy for viable cell number.

Experiment [4] relates to Human breast cancer cells (MDA-MB-231). The experiment in a line: Inhibitory activity against human breast cancer cells (MDA-MB-231), CTG cell viability. The conditions noted are these: 7 days with compound. Here is the method:
(§2) Human breast cancer cells (MDA-MB-231) were cultured using a DMEM culture medium containing 10% FBS in a cell incubator (37 °C, 5% CO2). On day one, the cells were plated in a 384-well plate at a cell concentration of 600 cells/well and cultured overnight in an incubator. On day two, the cells were treated with compounds. The highest compound concentration was 10 µM and was diluted 3-fold to obtain 9 concentrations, and the final concentration of DMSO was 0.2%. After the cells were cultured in the incubator for another 7 days, the cell viability was tested using a CTG Cell Viability Detection Reagent; the testing method was consistent with the method provided by the kit. Data were processed using XLFit, and IC50 was calculated. [formula] X: the logarithm of the compound concentration; Y: % inhibition. Table 8. The IC50 (nM) of a compound of the present disclosure against MDA-MB-231

Experiment [5] has as its system Human breast cancer cells (SUM-149PT). Put plainly: Inhibitory activity against human breast cancer cells (SUM-149PT), CTG cell viability. The note with it: 5 days with compound. As to the method: as §2, with “cells (SUM-149PT)” for “cells (MDA-MB-231)”, “of 800” for “of 600”, “another 5” for “another 7”, “Table 14.” for “Table 8.”, “against SUM-149PT” for “against MDA-MB-231”

For experiment [6], the system named is Human prostate cancer cells (22RV1). The experiment in a line: Inhibitory activity against human prostate cancer cells (22RV1), CTG cell viability. The conditions noted are these: 5 days with compound. As to the method:
as §1, with “prostate” for “non-small cell lung”, “(22RV1)” for “(A549)”, “RPMI 1640” for “F12K”, “500” for “300”, “12.” for “10.”, “22RV1” for “A549”

Consider `CC(C)n1c(C(C)(C)O)nc2c(F)cc(-c3nc(N[C@@H]4CCOC[C@H]4O)ncc3Cl)cc21` [PF-07220060], for which the half-inhibitory concentration (IC50) in experiment [1] amounted to 1590 nM; in experiment [2] it was 1870 nM; in experiment [3], 967 nM; in experiment [4] it was 567 nM.
As to `COCc1cc(C(=O)Nc2cc([C@H]3CC[C@@H](OC(=O)NC(C)C)C3)[nH]n2)n(C)n1` [PF-07104091, reference compound], the half-maximal inhibitory concentration (IC50) in experiment [1] turned out to be 936 nM; in experiment [2], 1130 nM; in experiment [3], 836 nM; in experiment [4] it was 1250 nM; in experiment [5] it was 1340 nM; in experiment [6], 2700 nM.
